Experimental data as given in the supplement of paper PMC11061612.

Tests used:
[1] = test system: KMOE-2 (Acute Myeloid Leukemia); assay: Bliss excess, mean over the matrix (fraction); higher = more synergy
Procedure, shortened: (§1)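 Cell lines in DMEM/F12 or RPMI with 10% FBS were plated in 1536-well plates, held 24 hours at 37°C, 5% CO2, then given two-drug dose matrices for 72 hours (DMSO typically 0.2%). Viability was read by CellTiter-Glo 2.0 luminescence and scaled as inhibition from 0 (vehicle wells) to 1 (blank wells). Combination Emax is the second-highest inhibition in the matrix; Bliss excess is observed combination effect minus expected EA + EB − EA·EB, EA and EB being single-agent effects.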

[2] = test system: SCC-15 (Oral Cavity Carcinoma); assay: as above
Procedure, shortened: as §1

[3] = test system: JVM-3 (B-Cell Non-Hodgkin's Lymphoma); assay: as above
Procedure, shortened: as §1

[4] = test system: JVM-3 (B-Cell Non-Hodgkin's Lymphoma); assay: combination Emax (second highest fraction inhibited in the dose matrix, 72 h); higher = more inhibition; extreme values may be limits of the assay
Procedure, shortened: as §1
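For Bliss excess, mean over the matrix in this document: after 72 h of two-drug dosing.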

CC(=O)c1c(C)c2cnc(Nc3ccc(N4CCNCC4)cn3)nc2n(C2CCCC2)c1=O [Palbociclib] + Cn1cnc2c(F)c(Nc3ccc(Br)cc3Cl)c(C(=O)NOCCO)cc21 [Selumetinib] (first compound max 10 µM, 7x7, partner max 10 µM)
Bliss excess [1]: -0.0028 | Bliss excess [2]: -0.0721

C[C@@H]1COCCN1c1cc(C2([S@](C)(=N)=O)CC2)nc(-c2ccnc3[nH]ccc23)n1 [AZD6738] + O=C(c1cc(Cc2n[nH]c(=O)c3ccccc23)ccc1F)N1CCN(C(=O)C2CC2)CC1 [Olaparib] (first compound max 10 µM, 7x7, partner max 10 µM)
Bliss excess [1]: 0.0413 | Bliss excess [3]: -0.0937 | Bliss excess [2]: 0.0011 | combination Emax [4]: 0.704

CC1(C)CCC(CN2CCN(c3ccc(C(=O)NS(=O)(=O)c4ccc(NCC5CCOCC5)c([N+](=O)[O-])c4)c(Oc4cnc5[nH]ccc5c4)c3)CC2)=C(c2ccc(Cl)cc2)C1 [Venetoclax] + C=CCn1c(=O)c2cnc(Nc3ccc(N4CCN(C)CC4)cc3)nc2n1-c1cccc(C(C)(C)O)n1 [AZD1775] (first compound max 1 µM, partner max 1 µM)
Bliss excess [1]: -0.0226 | Bliss excess [3]: -0.0521 | Bliss excess [2]: -0.0159 | combination Emax [4]: 0.953

CC1(C)CCC(CN2CCN(c3ccc(C(=O)NS(=O)(=O)c4ccc(NCC5CCOCC5)c([N+](=O)[O-])c4)c(Oc4cnc5[nH]ccc5c4)c3)CC2)=C(c2ccc(Cl)cc2)C1 [Venetoclax] + C[C@@H](Nc1cc(F)cc(F)c1)c1cc(C(=O)N(C)C)cc2c(=O)cc(N3CCOCC3)oc12 [AZD8186] (first compound max 1 µM, 7x7, partner max 3 µM)
Bliss excess [1]: -0.0254 | Bliss excess [3]: -0.0619 | Bliss excess [2]: -0.0348 | combination Emax [4]: 0.486

CS(=O)(=O)CCNCc1ccc(-c2ccc3ncnc(Nc4ccc(OCc5cccc(F)c5)c(Cl)c4)c3c2)o1 [Lapatinib] + C[C@@H](Oc1cc(-c2cnn(C3CCNCC3)c2)cnc1N)c1c(Cl)ccc(F)c1Cl [Crizotinib] (first compound max 10 µM, 7x7, partner max 10 µM)
Bliss excess [1]: 0.0174 | Bliss excess [2]: -0.0015

Cc1c2c(nn1C)CSCc1cc(n(C)n1)CSc1cc(c3ccccc3c1)OCCCc1c(C(=O)O)n(C)c3c-2c(Cl)ccc13 [AZD5991] + Cc1cc2ncnn2cc1Nc1ncc2c(n1)n(C1CCOCC1)c(=O)n2C [AZD7648] (first compound max 1 µM, 7x7, partner max 10 µM)
Bliss excess [1]: -0.0085 | Bliss excess [3]: -0.0539 | Bliss excess [2]: -0.042 | combination Emax [4]: 0.498

Cc1c2c(nn1C)CSCc1cc(n(C)n1)CSc1cc(c3ccccc3c1)OCCCc1c(C(=O)O)n(C)c3c-2c(Cl)ccc13 [AZD5991] + C[C@@H]1COCCN1C2=NC(=NC(=C2)C3(CC3)[S@](=N)(=O)C)C4=C5C=CNC5=NC=C4 [AZD6738] (first compound max 1 µM, 7x7, partner max 10 µM)
Bliss excess [1]: 0.0168 | Bliss excess [3]: -0.0642 | Bliss excess [2]: 0.0506 | combination Emax [4]: 0.713

CN(C)CCCOc1ccc(-c2ccc3ncc4c(c3c2)n(C2CCOCC2)c(=O)n4C)cn1 [AZD0156] + C[C@@H]1COCCN1C2=NC(=NC(=C2)C3(CC3)[S@](=N)(=O)C)C4=C5C=CNC5=NC=C4 [AZD6738] (first compound max 1 µM, 7x7, partner max 10 µM)
Bliss excess [1]: -0.0252 | Bliss excess [3]: -0.0183 | Bliss excess [2]: -0.0209 | combination Emax [4]: 0.783

COc1nnc2ccc(N3CCC(c4ccc(OCCN5CCN(C)C(=O)[C@H]5C)cc4)CC3)nn12 [AZD5153] + C[C@@H]1COCCN1C2=NC(=NC(=C2)C3(CC3)[S@](=N)(=O)C)C4=C5C=CNC5=NC=C4 [AZD6738] (first compound max 1 µM, 7x7, partner max 10 µM)
Bliss excess [1]: 0.0743 | Bliss excess [2]: 0.0084

Cn1cnc2c(F)c(Nc3ccc(Br)cc3Cl)c(C(=O)NOCCO)cc21 [Selumetinib] + C[C@@H]1COCCN1C2=NC(=NC(=C2)C3(CC3)[S@](=N)(=O)C)C4=C5C=CNC5=NC=C4 [AZD6738] (first compound max 10 µM, 7x7, partner max 10 µM)
Bliss excess [1]: 0.0544 | Bliss excess [2]: -0.0142

NC1(C(=O)N[C@@H](CCO)c2ccc(Cl)cc2)CCN(c2ncnc3[nH]ccc23)CC1 [Capivasertib] + CCN(CCO)CCCOc1ccc2c(Nc3cc(CC(=O)Nc4cccc(F)c4)[nH]n3)ncnc2c1 [AZD2811] (first compound max 10 µM, 7x7, partner max 1 µM)
Bliss excess [1]: -0.0154 | Bliss excess [2]: 0.0105

CC(=O)c1c(C)c2cnc(Nc3ccc(N4CCNCC4)cn3)nc2n(C2CCCC2)c1=O [Palbociclib] + Cc1c2c(nn1C)CSCc1cc(n(C)n1)CSc1cc(c3ccccc3c1)OCCCc1c(C(=O)O)n(C)c3c-2c(Cl)ccc13 [AZD5991] (first compound max 10 µM, 7x7, partner max 1 µM)
Bliss excess [1]: -0.0002 | Bliss excess [2]: -0.044

NC1(C(=O)N[C@@H](CCO)c2ccc(Cl)cc2)CCN(c2ncnc3[nH]ccc23)CC1 [Capivasertib] + COc1nnc2ccc(N3CCC(c4ccc(OCCN5CCN(C)C(=O)[C@H]5C)cc4)CC3)nn12 [AZD5153] (first compound max 10 µM, 7x7, partner max 1 µM)
Bliss excess [1]: -0.0211 | Bliss excess [2]: 0.028

NC1(C(=O)N[C@@H](CCO)c2ccc(Cl)cc2)CCN(c2ncnc3[nH]ccc23)CC1 [Capivasertib] + Cn1cnc2c(F)c(Nc3ccc(Br)cc3Cl)c(C(=O)NOCCO)cc21 [Selumetinib] (first compound max 10 µM, 7x7, partner max 10 µM)
Bliss excess [1]: 0.0417 | Bliss excess [2]: -0.0334

CC(=O)c1c(C)c2cnc(Nc3ccc(N4CCNCC4)cn3)nc2n(C2CCCC2)c1=O [Palbociclib] + CC1(C)CCC(CN2CCN(c3ccc(C(=O)NS(=O)(=O)c4ccc(NCC5CCOCC5)c([N+](=O)[O-])c4)c(Oc4cnc5[nH]ccc5c4)c3)CC2)=C(c2ccc(Cl)cc2)C1 [Venetoclax] (first compound max 10 µM, 7x7, partner max 1 µM)
Bliss excess [1]: -0.015 | Bliss excess [2]: -0.0589

Cn1cnc2c(F)c(Nc3ccc(Br)cc3Cl)c(C(=O)NOCCO)cc21 [Selumetinib] + CCN(CCO)CCCOc1ccc2c(Nc3cc(CC(=O)Nc4cccc(F)c4)[nH]n3)ncnc2c1 [AZD2811] (first compound max 10 µM, 7x7, partner max 1 µM)
Bliss excess [1]: -0.0124 | Bliss excess [2]: -0.0377

NC1(C(=O)N[C@@H](CCO)c2ccc(Cl)cc2)CCN(c2ncnc3[nH]ccc23)CC1 [Capivasertib] + CC(C)n1c(=O)n(C)c2cnc3cc(F)c(-c4ccc(OCCCN5CCCCC5)nc4)cc3c21 [AZD1390] (first compound max 10 µM, 7x7, partner max 0.3 µM)
Bliss excess [1]: -0.0666 | Bliss excess [2]: -0.0796

COc1nnc2ccc(N3CCC(c4ccc(OCCN5CCN(C)C(=O)[C@H]5C)cc4)CC3)nn12 [AZD5153] + CCN(CCO)CCCOc1ccc2c(Nc3cc(CC(=O)Nc4cccc(F)c4)[nH]n3)ncnc2c1 [AZD2811] (first compound max 1 µM, 7x7, partner max 1 µM)
Bliss excess [1]: -0.0176 | Bliss excess [2]: -0.0546

Cn1cnc2c(F)c(Nc3ccc(Br)cc3Cl)c(C(=O)NOCCO)cc21 [Selumetinib] + CC(C)n1c(=O)n(C)c2cnc3cc(F)c(-c4ccc(OCCCN5CCCCC5)nc4)cc3c21 [AZD1390] (first compound max 10 µM, 7x7, partner max 0.3 µM)
Bliss excess [1]: 0.0296 | Bliss excess [2]: -0.0462

Cn1cnc2c(F)c(Nc3ccc(Br)cc3Cl)c(C(=O)NOCCO)cc21 [Selumetinib] + C=CCn1c(=O)c2cnc(Nc3ccc(N4CCN(C)CC4)cc3)nc2n1-c1cccc(C(C)(C)O)n1 [AZD1775] (first compound max 10 µM, partner max 1 µM)
Bliss excess [1]: 0.0111 | Bliss excess [2]: -0.075

COc1nnc2ccc(N3CCC(c4ccc(OCCN5CCN(C)C(=O)[C@H]5C)cc4)CC3)nn12 [AZD5153] + CC1(C)CCC(CN2CCN(c3ccc(C(=O)NS(=O)(=O)c4ccc(NCC5CCOCC5)c([N+](=O)[O-])c4)c(Oc4cnc5[nH]ccc5c4)c3)CC2)=C(c2ccc(Cl)cc2)C1 [Venetoclax] (first compound max 1 µM, 7x7, partner max 1 µM)
Bliss excess [1]: -0.0718 | Bliss excess [2]: -0.0681

CCc1c2c(nc3ccc(O)cc13)-c1cc3c(c(=O)n1C2)COC(=O)[C@]3(O)CC [SN-38] + O=C(c1cc(Cc2n[nH]c(=O)c3ccccc23)ccc1F)N1CCN(C(=O)C2CC2)CC1 [Olaparib] (first compound max 0.3 µM, 7x7, partner max 10 µM)
Bliss excess [1]: 0.0555 | Bliss excess [3]: 0.0365 | combination Emax [4]: 0.998

COc1nnc2ccc(N3CCC(c4ccc(OCCN5CCN(C)C(=O)[C@H]5C)cc4)CC3)nn12 [AZD5153] + Cn1cnc2c(F)c(Nc3ccc(Br)cc3Cl)c(C(=O)NOCCO)cc21 [Selumetinib] (first compound max 1 µM, 7x7, partner max 10 µM)
Bliss excess [1]: 0.0402 | Bliss excess [2]: 0.032

NC1(C(=O)N[C@@H](CCO)c2ccc(Cl)cc2)CCN(c2ncnc3[nH]ccc23)CC1 [Capivasertib] + C[C@@H]1COCCN1C2=NC(=NC(=C2)C3(CC3)[S@](=N)(=O)C)C4=C5C=CNC5=NC=C4 [AZD6738] (first compound max 10 µM, 7x7, partner max 10 µM)
Bliss excess [1]: -0.0336 | Bliss excess [2]: -0.027

COc1nnc2ccc(N3CCC(c4ccc(OCCN5CCN(C)C(=O)[C@H]5C)cc4)CC3)nn12 [AZD5153] + C=CCn1c(=O)c2cnc(Nc3ccc(N4CCN(C)CC4)cc3)nc2n1-c1cccc(C(C)(C)O)n1 [AZD1775] (first compound max 1 µM, partner max 1 µM)
Bliss excess [1]: 0.0656 | Bliss excess [2]: -0.0427

COc1nnc2ccc(N3CCC(c4ccc(OCCN5CCN(C)C(=O)[C@H]5C)cc4)CC3)nn12 [AZD5153] + Cc1c2c(nn1C)CSCc1cc(n(C)n1)CSc1cc(c3ccccc3c1)OCCCc1c(C(=O)O)n(C)c3c-2c(Cl)ccc13 [AZD5991] (first compound max 1 µM, 7x7, partner max 1 µM)
Bliss excess [1]: -0.0322 | Bliss excess [2]: -0.0167

NC1(C(=O)N[C@@H](CCO)c2ccc(Cl)cc2)CCN(c2ncnc3[nH]ccc23)CC1 [Capivasertib] + CC(=O)c1c(C)c2cnc(Nc3ccc(N4CCNCC4)cn3)nc2n(C2CCCC2)c1=O [Palbociclib] (first compound max 10 µM, 7x7, partner max 10 µM)
Bliss excess [1]: -0.0566 | Bliss excess [2]: -0.0456
